Test results taken from patent publication US5478807A, “Use of relaxin in the treatment of bradycardia” (Genentech, Inc., priority 1992, dated 1995).
Several values for one entry are separate records, joined by “and”; a condition that tells them apart may be missing. Equal values may be shown once.

Columns and labels:
left atrium = assay: Left atrial contraction, isolated electrically paced left atrium; parameters: species or system rat; conditions: for left atrium contractile force % Δ, mean (X): mean of four left atria; for left atrium contractile force % Δ: single experiment
Description: Krebs-Henseleit solution was prepared with the following composition (in millimoles): NaCl 118; KCl 4.7; MgSO4 1.64; NaHCO3 24.88; KH2 PO4 1.18; d-glucose 11.1; bubbled with 95% O2 /5% CO2; CaCl2 2.52.
Human (H2) relaxin (hRLx-2, 1.5 mg/ml; Genentech) was diluted fresh daily to desired concentrations (500:1; 5000:1; 50000:1) in Krebs-Henseleit solution.
Male Wistar rats (Charles River) weighing 475-525 g each, were anesthetized with sodium pentobarbital (60 mg/kg). After thoracotomy, the heart was removed rapidly and placed in cold (4° C.) Krebs-Henseleit solution until spontaneous contractions ceased. The right and left atria were excised.
Tissue was bathed in an organ chamber holding 42 ml Krebs-Henseleit solution that was aerated with 95% O2 /5% CO2 and heated to 37° C. with a temperature controlled water jacket. Tissue contractions were measured with force-displacement transducers (Grass FT 0.3) and recorded on chart paper (Grass moled 79 polygraph). The rates of contractions were determined with a cardiotachometer (Grass). Electrical stimulation of tissue was induced through bipolar clip electrodes connected to a stimulator through a stimulus isolation unit (Grass model S48).
A stainless steel clip was attached to the distal end of the left atrium and the proximal end was attached to a bipolar electrode. The electrode assembly was secured within the organ chamber and the upper clip was attached to the force-displacement transducer. The position of the transducer was adjusted to yield 1.0 g resting tension. The left atrium was stimulated at 3Hz at 1.5×threshold. The duration (3 msec) and intensity of the pulses (1.5-3.0 Volts) were kept constant throughout an experiment.
In all experiments the atria were allowed to stabilize for 30 minutes prior to addition of drugs. […] Thus, cumulative dose-response curves were generated. At 10 minute intervals, relaxin was added to each organ chamber to obtain bath concentrations of 100 pg/ml, 300 pg/ml, 1 ng/ml, 3 ng/ml, 10 ng/ml and 30 ng/ml.
Measurement of contraction rate and force of contraction following each dose of relaxin were obtained after responses reached a steady state. Rate was determined directly from the output of the cardiotachometer. Force of contraction was measured as the magnitude of the contractile twitches. In order to adjust for variations between tissues, data are expressed as percent changes from pre-drug values, as means±standard errors. Measurements of rate were obtained in seven right atria; measurement of contractile force were obtained in four left atria.

[1] = system: primary human uterine cell line; assay: cAMP bioassay in primary human uterine cell line; type: cell-based
Description: The phosphorylated relaxin was assayed for its ability to increase cAMP levels in a primary human uterine cell line. The procedure of Kramer et al. [Kramer et al., In Vitro Cell, Dev, Biol. 26, 647-656 (1990)] was modified and carried out as follows: human uterine cells at passage 15-22 were grown to confluency in Ham's F12/DMEM (1/1, v/v) medium supplemented with 10% heat-inactivated newborn calf serum, 100 unites/ml penicillin, 100 μg/ml streptomycin, 2 mM glutamine and 24 mMHEPES, pH 7.4. Cells were plated into 6-well culture plates at 10^5 cells/well and incubated overnight at 37° C. and 5% CO2 in air. The cells (at 60-80% confluency) were then washed twice with F12/DMEM-24 mMHEPES, pH 7.4 (buffer B) at room temp. […] Aliquots of the extracts were then neutralized with 0.1 N NaOH and cAMP levels were measured in a radioimmunoassay. The assay was based on the competition between cAMP and a fixed quantity of ^125 I-labeled cAMP (Du Pont) for binding to a goat anti-cAMP antibody (Cambridge). […] The radioactivity in the pellet was measured in a gamma counter, and the amount of cAMP in the samples was determined by comparison with a standard cAMP curve. A relaxin standard curve was constructed in which the cAMP concentrations (pmol/ml) determined in the radioimmunoassay were plotted as a function of stimulating relaxin concentrations (ng/ml). […]

pubic symphysis = assay: Mouse pubic symphysis assay; conditions: in vivo
Description: The concentration of relaxin was determined by amino acid analysis.

Q: How did the “left atrium contractile force % Δ, mean (X)” value (left atrium; 100 pg) turn out when relaxin was run?
A: The value was -6%.

Q: What about the “left atrium contractile force % Δ” value (left atrium; 100 pg, change from pre-drug value) of the same substance?
A: The value was -12% and -5% and -4% and -3%.

Q: And the “left atrium contractile force % Δ, mean (X)” value (left atrium; 300 pg)?
A: The value was -9.5%.

Q: What about the “left atrium contractile force % Δ, mean (X)” value (left atrium; 1 ng) of the same substance?
A: Its value is 1.0%.

Q: And the “left atrium contractile force % Δ, mean (X)” value (left atrium; 3 ng)?
A: The value was 14.3%.

Q: What about the “left atrium contractile force % Δ, mean (X)” value (left atrium; 10 ng) of the same substance?
A: Its value is 30%.

Q: What about the “left atrium contractile force % Δ” value (left atrium; 10 ng) of the same substance?
A: The value was 22% and 38% and 40% and 20%.

Q: And the “left atrium contractile force % Δ, mean (X)” value (left atrium; 30 ng)?
A: Its value is 37.8%.

Q: And the “peak decrease in contractile force” value (left atrium; at 300 pg/ml)?
A: The value was 10%.

Q: And the “peak increase in contractile force” value (left atrium; at 30 ng/ml)?
A: Its value is 38%.

Q: And the “point of half maximal increase in contractile force” value (left atrium; left atrium)?
A: The value was “about 4.8 ng/ml”.

Q: What about the biological activity [1] of the same substance?
A: Its biological activity is “biologically active”.

Q: And the biological activity (pubic symphysis)?
A: Its biological activity is “biologically active”.
